Results as given in ChEMBL document CHEMBL1933046, “Synthesis and antibacterial activity of a novel series of acylides active against community acquired respiratory pathogens” (2012).
≈ marks a conversion by molar mass, not a printed value.

Legend:
Assay type in all cases: functional
Haemophilus influenzae = assay: Antibacterial activity against Haemophilus influenzae 38 by NCCLS method
Streptococcus pneumoniae [1] = assay: Antibacterial activity against Streptococcus pneumoniae 49619 by NCCLS method
Moraxella catarrhalis = assay: Antibacterial activity against Moraxella catarrhalis 8176 by NCCLS method
Streptococcus pneumoniae [2] = assay: Antibacterial activity against Streptococcus pneumoniae 6303 by NCCLS method
Streptococcus pneumoniae [3] = assay: Antibacterial activity against Streptococcus pneumoniae 3579 expressing erm gene by NCCLS method
Streptococcus pneumoniae [4] = assay: Antibacterial activity against Streptococcus pneumoniae 994 expressing mef gene by NCCLS method
Streptococcus pyogenes = assay: Antibacterial activity against Streptococcus pyogenes 19615 by NCCLS method
Streptococcus pneumoniae [5] = assay: Antibacterial activity against Streptococcus pneumoniae by NCCLS method

Row | SMILES | MIC (Haemophilus influenzae) [µg/mL] | MIC (Streptococcus pneumoniae [1]) [µg/mL] | MIC (Moraxella catarrhalis) [µg/mL] | MIC (Streptococcus pneumoniae [2]) [µg/mL] | MIC (Streptococcus pneumoniae [3]) [µg/mL] | MIC (Streptococcus pneumoniae [4]) [µg/mL] | MIC (Streptococcus pyogenes) [µg/mL] | MIC (Streptococcus pneumoniae [5]) [µg/mL]
1 | C=CCN(C)[C@H]1C[C@@H](C)O[C@@H](O[C@@H]2[C@@H](C)[C@H](OC(=O)Cc3ccccn3)[C@@H](C)C(=O)O[C@H](CC)[C@@]3(C)OC(=O)N(CCCCn4cnc5ccncc54)[C@@H]3[C@@H](C)C(=O)[C@H](C)C[C@@]2(C)OC)[C@@H]1O | 0.06 (≈ 0.0643 µM) | 0.125 (≈ 0.134 µM) | 0.06 (≈ 0.0643 µM) | 0.125 (≈ 0.134 µM) | 0.25 (≈ 0.268 µM) | 0.125 (≈ 0.134 µM) | 0.125 (≈ 0.134 µM) | –
2 | C=CCN(C)[C@H]1C[C@@H](C)O[C@@H](O[C@@H]2[C@@H](C)[C@H](OC(=O)Cc3ccccn3)[C@@H](C)C(=O)O[C@H](CC)[C@@]3(C)OC(=O)N(CCCCn4cnc5cncnc54)[C@@H]3[C@@H](C)C(=O)[C@H](C)C[C@@]2(C)OC)[C@@H]1O | < 0.06 | 0.06 (≈ 0.0642 µM) | 0.125 (≈ 0.134 µM) | 0.06 (≈ 0.0642 µM) | 0.25 (≈ 0.268 µM) | 0.125 (≈ 0.134 µM) | 0.06 (≈ 0.0642 µM) | –
3 | C=CCN(C)[C@H]1C[C@@H](C)O[C@@H](O[C@@H]2[C@@H](C)[C@H](OC(=O)Cc3ccccn3)[C@@H](C)C(=O)O[C@H](CC)[C@@]3(C)OC(=O)N(CCCCn4cnc5cccnc54)[C@@H]3[C@@H](C)C(=O)[C@H](C)C[C@@]2(C)OC)[C@@H]1O | < 0.06 | 0.06 (≈ 0.0643 µM) | 0.125 (≈ 0.134 µM) | 0.125 (≈ 0.134 µM) | 0.5 (≈ 0.536 µM) | 0.5 (≈ 0.536 µM) | 0.125 (≈ 0.134 µM) | –
4 | CC[C@H]1OC(=O)[C@H](C)[C@@H](OC(=O)Cc2ccccn2)[C@H](C)[C@@H](O[C@@H]2O[C@H](C)C[C@H](N(C)CC)[C@H]2O)[C@](C)(OC)C[C@@H](C)C(=O)[C@H](C)[C@H]2N(CCCCn3cnc(-c4ccc(N)nc4)c3)C(=O)O[C@]12C | 0.125 (≈ 0.13 µM) | 0.06 (≈ 0.0624 µM) | 0.25 (≈ 0.26 µM) | 0.06 (≈ 0.0624 µM) | 0.25 (≈ 0.26 µM) | 0.125 (≈ 0.13 µM) | 0.06 (≈ 0.0624 µM) | –
5 | C=CCN(C)[C@H]1C[C@@H](C)O[C@@H](O[C@@H]2[C@@H](C)[C@H](OC(=O)Cc3cccnc3)[C@@H](C)C(=O)O[C@H](CC)[C@@]3(C)OC(=O)N(CCCCn4cnc(-c5ccc(N)nc5)c4)[C@@H]3[C@@H](C)C(=O)[C@H](C)C[C@@]2(C)OC)[C@@H]1O | 0.125 (≈ 0.128 µM) | 0.125 (≈ 0.128 µM) | 0.125 (≈ 0.128 µM) | 0.06 (≈ 0.0616 µM) | 0.125 (≈ 0.128 µM) | 0.06 (≈ 0.0616 µM) | 0.06 (≈ 0.0616 µM) | –
6 | C=CCN(C)[C@H]1C[C@@H](C)O[C@@H](O[C@@H]2[C@@H](C)[C@H](OC(=O)Cc3cccnc3)[C@@H](C)C(=O)O[C@H](CC)[C@@]3(C)OC(=O)N(CCCCn4ccc5cccnc54)[C@@H]3[C@@H](C)C(=O)[C@H](C)C[C@@]2(C)OC)[C@@H]1O | < 0.03 | 0.06 (≈ 0.0644 µM) | 0.06 (≈ 0.0644 µM) | 0.06 (≈ 0.0644 µM) | 8 (≈ 8.58 µM) | 0.25 (≈ 0.268 µM) | 0.03 (≈ 0.0322 µM) | –
7 | CC[C@H]1OC(=O)[C@H](C)[C@@H](OC(=O)Cc2ccccc2[N+](=O)[O-])[C@H](C)[C@@H](O[C@@H]2O[C@H](C)C[C@H](N(C)CC3CC3)[C@H]2O)[C@](C)(OC)C[C@@H](C)C(=O)[C@H](C)[C@@H](O)[C@]1(C)O | – | – | – | – | – | – | – | 1 (≈ 1.26 µM)

More lines, now with the values ahead:

Row | MIC (Haemophilus influenzae) [µg/mL] | MIC (Streptococcus pneumoniae [1]) [µg/mL] | MIC (Moraxella catarrhalis) [µg/mL] | MIC (Streptococcus pneumoniae [2]) [µg/mL] | MIC (Streptococcus pneumoniae [3]) [µg/mL] | MIC (Streptococcus pneumoniae [4]) [µg/mL] | MIC (Streptococcus pyogenes) [µg/mL] | MIC (Streptococcus pneumoniae [5]) [µg/mL] | SMILES
8 | < 0.06 | 0.03 (≈ 0.0308 µM) | 0.125 (≈ 0.128 µM) | 0.03 (≈ 0.0308 µM) | 0.125 (≈ 0.128 µM) | 0.06 (≈ 0.0617 µM) | 0.03 (≈ 0.0308 µM) | – | C=CCN(C)[C@H]1C[C@@H](C)O[C@@H](O[C@@H]2[C@@H](C)[C@H](OC(=O)Cc3ccccn3)[C@@H](C)C(=O)O[C@H](CC)[C@@]3(C)OC(=O)N(CCCCn4cnc(-c5cccc(N)c5)c4)[C@@H]3[C@@H](C)C(=O)[C@H](C)C[C@@]2(C)OC)[C@@H]1O
9 | 0.25 (≈ 0.264 µM) | 0.015 (≈ 0.0158 µM) | 0.125 (≈ 0.132 µM) | 0.06 (≈ 0.0633 µM) | 0.125 (≈ 0.132 µM) | 0.125 (≈ 0.132 µM) | 0.06 (≈ 0.0633 µM) | – | C=CCN(C)[C@H]1C[C@@H](C)O[C@@H](O[C@@H]2[C@@H](C)[C@H](OC(=O)Cc3ccccn3)[C@@H](C)C(=O)O[C@H](CC)[C@@]3(C)OC(=O)N(CCCCn4cnc(-c5ccoc5)c4)[C@@H]3[C@@H](C)C(=O)[C@H](C)C[C@@]2(C)OC)[C@@H]1O
10 | < 0.06 | 0.03 (≈ 0.0321 µM) | 0.06 (≈ 0.0643 µM) | 0.06 (≈ 0.0643 µM) | 0.25 (≈ 0.268 µM) | 0.25 (≈ 0.268 µM) | 0.03 (≈ 0.0321 µM) | – | C=CCN(C)[C@H]1C[C@@H](C)O[C@@H](O[C@@H]2[C@@H](C)[C@H](OC(=O)Cc3ccccn3)[C@@H](C)C(=O)O[C@H](CC)[C@@]3(C)OC(=O)N(CCCCn4cnc5cnccc54)[C@@H]3[C@@H](C)C(=O)[C@H](C)C[C@@]2(C)OC)[C@@H]1O
11 | 0.06 (≈ 0.0651 µM) | 0.015 (≈ 0.0163 µM) | 0.125 (≈ 0.136 µM) | 0.06 (≈ 0.0651 µM) | 0.25 (≈ 0.271 µM) | 0.25 (≈ 0.271 µM) | 0.03 (≈ 0.0326 µM) | – | CC[C@H]1OC(=O)[C@H](C)[C@@H](OC(=O)Cc2ccccn2)[C@H](C)[C@@H](O[C@@H]2O[C@H](C)C[C@H](N(C)CC)[C@H]2O)[C@](C)(OC)C[C@@H](C)C(=O)[C@H](C)[C@H]2N(CCCCn3cnc4ncccc43)C(=O)O[C@]12C
12 | 1 (≈ 1.06 µM) | 0.03 (≈ 0.0317 µM) | 0.125 (≈ 0.132 µM) | 0.06 (≈ 0.0633 µM) | 2 (≈ 2.11 µM) | 0.125 (≈ 0.132 µM) | 0.03 (≈ 0.0317 µM) | – | CC[C@H]1OC(=O)[C@H](C)[C@@H](OC(=O)Cc2cccnc2)[C@H](C)[C@@H](O[C@@H]2O[C@H](C)C[C@H](N(C)CC)[C@H]2O)[C@](C)(OC)C[C@@H](C)C(=O)[C@H](C)[C@H]2N(CCCCn3cnc(-c4cccnc4)c3)C(=O)O[C@]12C
13 | 0.125 (≈ 0.13 µM) | 0.008 (≈ 0.00834 µM) | 0.125 (≈ 0.13 µM) | 0.015 (≈ 0.0156 µM) | 0.25 (≈ 0.261 µM) | 0.125 (≈ 0.13 µM) | 0.008 (≈ 0.00834 µM) | – | C=CCN(C)[C@H]1C[C@@H](C)O[C@@H](O[C@@H]2[C@@H](C)[C@H](OC(=O)Cc3ccccn3)[C@@H](C)C(=O)O[C@H](CC)[C@@]3(C)OC(=O)N(CCCCn4cnc(-c5cccnc5)c4)[C@@H]3[C@@H](C)C(=O)[C@H](C)C[C@@]2(C)OC)[C@@H]1O
14 | < 0.03 | 0.03 (≈ 0.0326 µM) | 0.25 (≈ 0.271 µM) | 0.06 (≈ 0.0651 µM) | 2 (≈ 2.17 µM) | 0.25 (≈ 0.271 µM) | 0.03 (≈ 0.0326 µM) | – | CC[C@H]1OC(=O)[C@H](C)[C@@H](OC(=O)Cc2cccnc2)[C@H](C)[C@@H](O[C@@H]2O[C@H](C)C[C@H](N(C)CC)[C@H]2O)[C@](C)(OC)C[C@@H](C)C(=O)[C@H](C)[C@H]2N(CCCCn3cnc4ncccc43)C(=O)O[C@]12C
15 | – | 0.015 (≈ 0.0197 µM) | 1 (≈ 1.32 µM) | 0.125 (≈ 0.164 µM) | 8 (≈ 10.5 µM) | 0.125 (≈ 0.164 µM) | 0.015 (≈ 0.0197 µM) | – | C=CCN(C)[C@H]1C[C@@H](C)O[C@@H](O[C@@H]2[C@@H](C)[C@H](OC(=O)Cc3ccccn3)[C@@H](C)C(=O)O[C@H](CC)[C@@]3(C)OC(=O)N[C@@H]3[C@@H](C)C(=O)[C@H](C)C[C@@]2(C)OC)[C@@H]1O
16 | – | 0.03 (≈ 0.0308 µM) | 0.125 (≈ 0.128 µM) | 0.03 (≈ 0.0308 µM) | 0.125 (≈ 0.128 µM) | 0.06 (≈ 0.0615 µM) | 2 (≈ 2.05 µM) | – | C=CCN(C)[C@H]1C[C@@H](C)O[C@@H](O[C@@H]2[C@@H](C)[C@H](OC(=O)Cc3ccccn3)[C@@H](C)C(=O)O[C@H](CC)[C@@]3(C)OC(=O)N(CCCCn4cnc(-c5cnc(N)nc5)c4)[C@@H]3[C@@H](C)C(=O)[C@H](C)C[C@@]2(C)OC)[C@@H]1O
